# Patent publication US5998366A, “Method for ameliorating glutamic acid decarboxylase associated autoimmune disorders” (The Regents of the University of California, priority 1997, dated 1999)
# How the values were obtained:
# spleen cells of NOD mice = assay: Proliferative recall response of spleen cells to β-cell antigens, by age; format: cell-based
# Experimental: (§1) NOD (Taconic farms) and BALB/c mice (Jackson Laboratories) were kept under specific pathogen free conditions. The mice were sacrificed at the ages indicated and the spleen cells were tested directly ex vivo for their proliferative recall response to antigen. Single cell suspensions of spleen cells were plated at 1×10^6 cells per well in 96 well microtiter plates in 200 μl serum free HL-1 medium (Ventrex) that was supplemented with 2 mM glutamine with or without 10 μg/ml antigen (or 7 μM peptide) in triplicate cultures. During the last 16 h of the 72 h culture period, 1 μCi[^3 H]-thymidine was added per well. Incorporation of label was measured by liquid scintillation counting.
# Both human GAD65 (Bu, et al., Proc. Natl. Acad. Sci., 89:2115-2119, 1992) and E. coli β-gal (control) were purified from recombinant bacteria on the basis of a hexahistidine tag which allows their rapid affinity purification by metal affinity chromatography (Hochuli, et al., Bio/Technology, 6:1321-1325, 1988). Bovine CPH was the generous gift of L. Fricker (Albert Einstein Col. Med.) and human insulin was purchased from Eli Lilly.
# female NOD mice [1] = assay: Insulitis score after tolerance induction; format: in vivo; conditions: examined at 12 weeks
# Experimental: (§2) 1. In these experiments female NOD mice were intravenously injected at 3 weeks of age with 50 μg GAD, μ-galactosidase, mycobacterial hsp65 (m-hsp) or 0.1 μg of the immunodominant hsp peptide (hsp-p), in PBS. At 12 weeks of age, mice were examined for insulitis and autoantigen reactive T-cells. At this age both indications are established in untreated NOD mice. Pancreatic tissue sections were stained by immunoperoxidase techniques for insulin and were counterstained with hematoxylin. Insulitis was scored in a blinded manner by examining 54 to 87 islets on 5 interrupted tissue sections from each pancreas. Proliferative splenic T-cell responses induced by various antigens were performed as described above in Example 4. Data in Table 8 are expressed as the average [^3 H]-thymidine label (cpm) incorporated in triplicate cultures.
# 2. In a second set of experiments neonatal female NOD mice were injected intraperitoneally IFA with peptide 11, a mixture of peptides 34 and 35 plus IFA, or with IFA alone and at 12 weeks of age the mice were examined for insulitis and autoantigen reactive T-cells as in Example 6.1. Proliferative splenic T-cell responses induced by the various antigens were performed as in Example 4, and data in Table 8B are expressed as the average [^3 H]-thymidine label (cpm) incorporated in triplicate cultures.
# 3. In a third set of experiments female NOD mice were intravenously injected at three weeks of age with peptide 11 (control), a mixture of peptides 34 and 35 plus IFA, or with HEL peptides and at 12 weeks of age the mice were examined for insulitis and autoantigen reactive T-cells as in Example 6.1. Proliferative splenic T-cell responses induced by the various antigens were performed as in Example 4, and data in Table 8C are expressed as the average [^3 H]-thymidine label (cpm) incorporated in triplicate cultures.
# [2] = test system: spleen cells of treated female NOD mice; assay: Proliferative splenic T-cell responses to antigens after tolerance induction; format: in vivo
# Experimental: as §1
# as §2, with “Proliferative splenic T-cell responses induced by various antigens were performed as described above in Example 4.” left out, “cultures. […]” for “cultures.”
# female NOD mice [3] = assay: GAD immunization of 8 week old NOD mice, onset of IDDM; format: in vivo
# Description: An IPTG inducible T7 expression vector was used to express both human GAD65 and E. coli b galactosidase (β-gal). In IPTG induced recombinant E. coli, GAD and β-gal constitute about 10-20% of the total bacterial protein. However, almost all of the GAD was in inclusion bodies, which could be isolated and extensively washed to obtain material that is about 80% GAD. We then did affinity purifications of GAD and β-gal on the basis of a hexa-histidine "tag" which was attached to GAD during the subcloning process. These extra histidine residues allow the rapid affinity purification (Novagen) of GAD by metal affinity chromatography (Hochuli, et al., Bio Technology, 6:1321-1325, 1988). The inclusion body material is solubilized in 6M guanidine hydrochloride (GHCL), 10 mm β-mercaptoethanol and 1% triton X-100. After binding to the column, the column was extensively washed with GHCL and 8M urea in phosphate buffers. Only the central peak GAD fraction was utilized for subsequent studies. Human GAD65 shares 96% amino acid sequence identity with murine GAD65, with most of the amino acid differences being conservative substitutions.
# Breeder mice were purchased from Taconic Farms and housed under specific pathogen-free conditions. Only female NOD mice were used in this study. The average age of IDDM onset in unrelated females in the colony was 22 weeks. Insulitis is generally observed beginning at 4 weeks of age. T cell responses to GAD, HSP, CPH were found by 6 weeks in age. The incidence of IDDM in female mice is 70-90% by one year of age.
# At 8 weeks of age, 25 ug GAD or control β-gal. was injected intraperftoneally (ip) in 100 ul of incomplete Freunds adjuvant (IFA). Because there may be a requirement for continual antigen presentation (Ramsdell, et al., Science, 257:1130-1133, 1992) mice were treated again every 6 weeks. Urine glucose levels were monitored twice weekly. After observing above normal glucose in urea, blood glucose levels were monitored twice weekly. Two consecutive blood glucose level readings of […] was considered as IDDM onset, after which the mice were sacrificed and spleen cells were tested as described above in Example 6 for evidence of spleen cell proliferation.
# [4] = test system: spleen cells of treated female NOD mice; assay: Proliferative splenic T-cell responses to antigens after tolerance induction; format: in vivo; conditions: Table 8A: i.v. at 3 weeks, tested at 12 weeks
substance,measurement,setting,value
GAD: human GAD65 purified from recombinant bacteria on the basis of a hexahistidine tag,T cell proliferation in non-diseased spleen cells,spleen cells of NOD mice; <4 or >16 week old NOD or control BALB/c or (NOD/BALB/c)F1 spleen cells,did not induce T cell proliferation
same,age at which the proliferative T-cell response to the antigen appeared,"spleen cells of NOD mice; female NOD mice, 10 μg/ml antigen or 7 μM peptide, 72 h culture (FIG. 8)",4 weeks
same,Insulitis Score,"female NOD mice [1]; Table 8A: i.v. injection at 3 weeks of age in PBS, scale 0-4, mean ± SE",0.1 ± 0.1
same,insulitis score of the completely tolerized mice,female NOD mice [1]; i.v. at 3 weeks,0.0
same,share of treated mice with no T-cell reactivity to GAD (complete tolerization) or to other βCAs,"[2]; i.v. at 3 weeks, tested at 12 weeks",Seventy five percent
same,weak residual GAD reactivity of the mice not completely tolerized,[2]; twenty five percent of the GAD-treated mice,about 3 SI
same,age until which 8 of the immunized mice showed no signs of hyperglycemia,"female NOD mice [3]; 25 ug ip in IFA at 8 weeks, again every 6 weeks",36 weeks
same,treated mice remaining disease free at 52 weeks of age,"female NOD mice [3]; 25 ug ip in IFA at 8 weeks, again every 6 weeks, 10 mice per group",Four
same,significance of the delay or prevention of diabetes,female NOD mice [3]; versus β-gal immunized mice,< 0.02
same,Spleen Cell Proliferation (SI ± SEM) CPH,[4]; recall antigen CPH,1.1 ± 0.02 SI
same,Spleen Cell Proliferation (SI ± SEM) GAD,[4]; recall antigen GAD,1.6 ± 0.3 SI
same,Spleen Cell Proliferation (SI ± SEM) GAD Peptides #17,[4]; recall antigen GAD peptide #17,1.0 ± 0.05 SI
same,Spleen Cell Proliferation (SI ± SEM) GAD Peptides #34,[4]; recall antigen GAD peptide #34,1.2 ± 0.1 SI
same,Spleen Cell Proliferation (SI ± SEM) GAD Peptides #35,[4]; recall antigen GAD peptide #35,1.0 ± 0.1 SI
same,Spleen Cell Proliferation (SI ± SEM) hsp Peptide,[4]; recall antigen hsp peptide,1.2 ± 0.1 SI
same,Spleen Cell Proliferation (SI ± SEM) β-Gal,[4]; recall antigen β-Gal,1.1 ± 0.03 SI
